Assay results reported in patent publication US8771691B2, “Methods for the treatment and the prognostic assessment of malignant pleural mesothelioma” (Inserm (Institut National de la Sante et de la Recherche …, priority 2008, dated 2014).

Tests used:
[1] = patients with MPM, randomized study, two arms; cited from earlier work
MSTO-211H cells [2] = test: Cellular growth of MSTO-211H cells; assay type: cell-based, human; conditions: 10^-6 M; cells counted after 24, 48 and 72 h
Method: (§1) The human mesothelioma cell line, MSTO-211H, was selected because of its intense proliferative activity and its aggressive profile (ATCC CRL-2081, 211H). The MSTO-211H cells were grown in RPMI-1640 medium (Invitrogen, USA) supplemented with 10% fetal calf serum (PAATM) and 2 mM glutamine (Gibco®). Cells were stored at 37° in 5% CO2 atmosphere.
Cellular growth was performed using 6 well-tissue-culture dishes. 15×10^4 MSTO-211H cells were seeded, after 24 h cells were washed twice with PBS, and complete media containing either 10^−6M SR 48692, a NTSR1 antagonist, or 10^−4M de DMSO was added to the cells. After 24, 48, and 72 h of growth, cells were trypsinized and counted with a cells coulter (Z1 Coulter® Particle Counter, Beckman Coulter™).

MSTO-211H cells [3] = test: Collagen invasion assay (type I collagen); assay type: cell-based, human; conditions: 5x10^-6 M SR48692 or 1:50 anti-NTS antibody; 48 hours; controls 13% (untreated), 11% (DMSO)
Method: as §1
Collagen invasion assay was performed by using tissue culture inserts composed of a 8 μm porous polycarbonate membrane, placed as inner chamber in 24 well-tissue-culture dishes. This membrane was coated with […] of 2 mg/ml type I collagen diluted in RPMI-1640 medium (Collagen type I, rat tail, Upstate). The bottom chamber was filled with 500 μL RPMI-1640 medium supplemented with 10% fetal calf serum and 2 mM glutamine. 10^3 MSTO-211H cells were seeded on the top of the inner chamber. Cells were treated with 5×10^−6 M of NTSR1 antagonist SR48692 or with 1:50 solution of anti-NTS rabbit antibody (NA1230, Tebu-Bio). Cells were placed for 48 hours at 37° C. in 5% CO2 atmosphere. After incubation, non invasive cells on the upper surface of the collagen matrix were wiped off with cotton swabs. Filter membranes were fixed with 5% glutaraldehyde and remaining cells stained with 0.5% toluidine blue. Quantitation of invasive cells was carried out at the 400× magnification by using the software CELINA.

MSTO-211H cells [4] = test: Wound healing assay (cell migration); assay type: cell-based, human; conditions: 10^-6 M; at 24 and 30 hours; 0.5% FCS; controls 27% (untreated), 30% (DMSO)
Method: as §1
In order to evaluate the impact of the neurotensinergic system on cell migration, a wound healing assay was performed. 1.75×10^6 MSTO-211H cells were plated per well in 6 well dishes containing the medium in order to reach confluence. After 24 hours cells were serum-starved and scarification was performed in a Moscona buffer with a 20 μl pipette tip. Cells were maintained in culture with low serum medium (0.5% FCS) and treated with 10^−6 M SR48692. Control cells were exposed or not to the SR48692 solvent, DMSO. Pictures were taken at the beginning and 24 and 30 hours later with a photonic microscope. The “remaining gap” was calculated as percentage between wound size at 30 hours and initial wound size.

Compound	median survival [1] [months]	effect on cell growth (MSTO-211H cells [2])	cells that invaded the type I collagen (MSTO-211H cells [3]) [%]	residual gap (% of original gap) (MSTO-211H cells [4]) [%]
N.N.[Cl][Pt][Cl] [cisplatin]	9.3			
COc1cccc(OC)c1-c1cc(C(=O)NC2(C(=O)O)C3CC4CC(C3)CC2C4)nn1-c1ccnc2cc(Cl)ccc12 (stereo not shown) [SR48692]		no effect	4	48
